# Assay results from US10441537B2, “Unit doses, aerosols, kits, and methods for treating heart conditions by pulmonary administration” (InCarda Therapeutics, Inc., priority 2017, dated 2019).
# Where a name gives a salt, the structure may show the parent alone.
# Assays:
# [1] = system: induced supraventricular tachycardia; experiment: Supraventricular tachycardia (SVT) model in anesthetized dogs, IT vs IV; format: in vivo; settings: for cardiovascular effect when given by intratracheal instillation (summary): dog, in vivo
# Procedure: Supraventricular Tachycardia Model:
# Anesthesia/Surgical Preparation:
# A venous catheter was placed in a peripheral vessel (i.e., cephalic) for administration of anesthetic(s). For anesthesia induction, all animals were given a combination of diazepam (˜0.5 mg/kg) and ketamine (˜10 mg/kg) intravenously through this venous catheter. Anesthesia was sustained until completion of the study with an intravenous infusion of pentobarbital (5-15 mg/kg/hr). Following induction, animals were endotracheally intubated and mechanically ventilated (˜12 breaths/min with a tidal volume of 200-300 mL).
# Subsequently, a cut-down on a jugular vein permitted the introduction of a pacing lead into the right atrium. Similarly, for arterial pressure monitoring, a solid-state micromanometer catheter (Millar Instruments) was advanced into the aortic root via a cut-down over an artery (e.g., femoral, carotid). Transthoracic electrodes forming ECG lead II was placed. For vehicle/test article delivery, a 4F catheter was introduced through the trachea and wedged into a small airway, and a venous catheter was placed in a peripheral vessel (i.e., cephalic).
# Following instrumentation/hemodynamic stabilization (for at least 15 minutes), right atrial pacing (5-10 V, 40 Hz, 2 ms pulses) was established in order to induce supraventricular tachycardia (SVT); pacing and SVT was sustained throughout the duration of the experiments. Approximately 5 minutes after onset of SVT and while monitoring ECG/arterial pressure continuously, the animals were administered three escalating doses (one at a time) of a test article; each dose was delivered as a bolus (˜3 mL) directly into a small airway through the intratracheal catheter (IT). Following dosing, the heart-rate (HR) and arterial pressure response were monitored for 15 minutes.
# Subsequently (once the response to three IT doses had been recorded), hemodynamic recovery was allowed for approximately 30 minutes, and the electrocardiographic/hemodynamic response to the highest test-article dose was re-evaluated; however, for comparison purposes, this dose was delivered intravenously (IV).
# Overall, two groups/test-articles were studied, and up to two animals were assigned to each group (n=2/group): one group received esmolol HCL (0.5-1.0 mg/kg, ESM), while the other received adenosine (0.25-1.0 mg/kg, ADN); only one test article was administered to per animal.
# [2] = system: induced atrial fibrillation; experiment: Induced atrial fibrillation model in anesthetized dogs, intratracheal (IT) administration; format: in vivo; settings: for conversion of induced atrial fibrillation to normal sinus rhythm: pulmonary dose 0.25 mg/kg body weight (FIG. 13), hydrochloride
# Procedure: Atrial Fibrillation Model: Anesthesia/Surgical Preparation: A venous catheter was placed in a peripheral vessel (i.e., cephalic) for administration of anesthetic. […] Following induction, animals were endotracheally intubated and mechanically ventilated (˜12 breaths/minute with a tidal volume of 200-300 mL). Subsequently, a cut-down on a jugular vein permitted introduction of a pacing lead into the right atrium. Transthoracic electrodes forming ECG lead II were placed. For test/vehicle article delivery, a 4F catheter was introduced through the trachea and wedged into a small airway, and a venous catheter was placed in a peripheral vessel (i.e., cephalic). […] Approximately 5 min after administration of this parasympathomimetic was started; the following experiments were performed: […] Observations were made for up to 10 minutes. […] Vehicle was only water.
structure (smiles),measurement,setting,value
"COC(=O)CCc1ccc(OCC(O)CNC(C)C)cc1 (stereo not shown) [esmolol, esmolol HCl]",period of AV block,"[1]; 0.5 mg/kg via the lung (FIG. 17, 18)",AV block induced
same,period of AV block,[1]; 0.75 mg/kg via the lung (FIG. 20),AV block induced
same,cardiovascular effect when given by intratracheal instillation (summary),[1],probable effect
same,AV block,[1]; elevating IT doses,2nd degree AV block at lower doses
same,PR intervals in the ECG traces,[1]; elevating IT doses,prolonging the PR intervals
same,electrophysiological effects,[1]; higher dose 1.0 mg/kg,did not produce the same electrophysiological effects
Nc1ncnc2c1ncn2[C@@H]1O[C@H](CO)[C@@H](O)[C@H]1O [adenosine],cardiovascular effect when given by intratracheal instillation (summary),[1],a clear response was not observed
same,effect on the heart,[1]; via the lung,did not have any effect on the heart
"COc1ccc([C@@H]2Sc3ccccc3N(CCN(C)C)C(=O)[C@@H]2OC(C)=O)cc1 [diltiazem, diltiazem hydrochloride]",pH of solution in water,3.5 mg/mL,6.7
same,appearance of solution,"distilled water, diltiazem hydrochloride 50 mg/ml, flecainide acetate 30 mg/ml",clear with no visible particulate matter
same,conversion of Atrial Fibrillation to normal sinus rhythm,[2]; IT bolus,rapidly converted the Atrial Fibrillation to normal sinus rhythm
same,cardiovascular effect when given by intratracheal instillation (summary),"[2]; dog, in vivo",clear cardiovascular effect
same,mean arterial blood pressure (MAP),"[2]; dog, in vivo, 0.25 mg/kg",notable drop in mean arterial blood pressure
same,PQ interval,[2]; pulmonary dose 0.25 mg/kg,prolonged the PQ interval
same,heart rate,[2]; pulmonary dose 0.25 mg/kg,slowed down but marginally
same,conversion of induced atrial fibrillation to normal sinus rhythm,[2]; 0.25 mg/kg,converted the induced atrial fibrillation to normal sinus rhythm
same,conversion of induced atrial fibrillation to normal sinus rhythm,"[2]; listed as diltiazem HCl, 0.25 mg/kg",Afib converting after administration
same,pulmonary vs IV route,[1]; 0.25 mg/kg,comparable in all aspects
same,PR interval,[1]; IV or pulmonary route,prolonged the PR interval
CN(CCOc1ccc(NS(C)(=O)=O)cc1)CCc1ccc(NS(C)(=O)=O)cc1 [dofetilide],effect on ventricular rate,[2]; IT bolus,marginally slowed the ventricular rate
same,cardiovascular effect when given by intratracheal instillation (summary),"[2]; dog, in vivo",probable effect
same,heart rate,[2]; escalating pulmonary doses of 10-40 mcg/kg body weight,minor reduction in heart rate
